Experimental data published in ChEMBL document CHEMBL1201862, “PubChem BioAssay data set” (2004).
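Five concentrations, 48 hours, 96-well plates. The concentration for 50% growth inhibition is given as GI50.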 Active and inactive are the calls of the source. Rule as the data show it: active = GI50 up to about 1.1 µM and inactive = higher.

Key:
Test in all cases: inhibition of tumour cell growth, NCI panel, 48 h
[1] = test system: COLO 205
[2] = test system: MOLT-4
[3] = test system: SK-MEL-28
[4] = test system: EKVX
[5] = test system: KM-20L2
[6] = test system: CCRF-CEM
[7] = test system: SK-OV-3
[8] = test system: HT-29
[9] = test system: HOP-92
[10] = test system: HCT-15
[11] = test system: SK-MEL-2
[12] = test system: NCI-H23
[13] = test system: SN12C
[14] = test system: NCI-H522
[15] = test system: KM12
[16] = test system: SF-295
[17] = test system: IGROV-1
[18] = test system: OVCAR-8

Structure (SMILES) | GI50 [1] | GI50 [2] | GI50 [3] | GI50 [4] | GI50 [5] | GI50 [6] | GI50 [7] | GI50 [8] | GI50 [9] | GI50 [10] | GI50 [11] | GI50 [12] | GI50 [13] | GI50 [14] | GI50 [15] | GI50 [16] | GI50 [17] | GI50 [18]
O=S(=O)(O)c1cc(O)c2c(O)c(/N=N/c3ccc(/C=C/c4ccc(/N=N/c5c(S(=O)(=O)O)cc6cc(S(=O)(=O)O)cc(O)c6c5O)cc4S(=O)(=O)O)c(S(=O)(=O)O)c3)c(S(=O)(=O)O)cc2c1 | > 100 µM (inactive) | > 100 µM (inactive) | > 100 µM (inactive) | > 100 µM (inactive) | > 100 µM (inactive) | > 100 µM (inactive) | > 100 µM (inactive) | > 100 µM (inactive) | 95.7 µM (inactive) | > 100 µM | > 100 µM (inactive) | > 100 µM (inactive) | > 100 µM (inactive) | > 100 µM (inactive) | 32.5 µM (inactive) | > 100 µM (inactive) | > 100 µM (inactive) | > 100 µM (inactive)
Cc1ccc(/C=N/NS(=O)(=O)c2ccccc2)c(C)c1 | > 100 µM (inactive) | > 100 µM (inactive) | > 100 µM (inactive) | > 100 µM (inactive) | > 100 µM (inactive) | 78.9 µM (inactive) | > 100 µM (inactive) | > 100 µM (inactive) | > 100 µM (inactive) | > 100 µM | > 100 µM (inactive) | > 100 µM (inactive) | > 100 µM (inactive) | – | > 100 µM (inactive) | > 100 µM (inactive) | > 100 µM (inactive) | > 100 µM (inactive)
COc1ccc(N2C(=O)C3c4[nH]c5ccccc5c4C4CCCCCCC4C3C2=O)cc1 (stereo not drawn) | 13.2 µM (inactive) | 8 µM (inactive) | 18.8 µM (inactive) | 14 µM (inactive) | 28.8 µM (inactive) | 4.12 µM (inactive) | 14.4 µM (inactive) | 23 µM (inactive) | 13.8 µM (inactive) | 6.71 µM | 26.2 µM (inactive) | 13.1 µM (inactive) | 4.79 µM (inactive) | 13.9 µM (inactive) | > 51.2 µM (inactive) | 11.6 µM (inactive) | 18.2 µM (inactive) | 3.8 µM (inactive)
COC(=O)c1c[nH]cc1CCCCc1c[nH]cc1C(=O)OC | > 100 µM (inactive) | > 100 µM (inactive) | > 100 µM (inactive) | > 100 µM (inactive) | > 100 µM (inactive) | > 100 µM (inactive) | > 100 µM (inactive) | > 100 µM (inactive) | 58.6 µM (inactive) | – | > 100 µM (inactive) | > 100 µM (inactive) | > 100 µM (inactive) | > 100 µM (inactive) | > 100 µM (inactive) | 73.3 µM (inactive) | > 100 µM (inactive) | > 100 µM (inactive)
CC(=O)OCC1OC(N2C(=O)C(=O)c3cc(C)ccc32)C(OC(C)=O)C(OC(C)=O)C1OC(C)=O (stereo not drawn) | 94.6 µM (inactive) | 29 µM (inactive) | 32.5 µM (inactive) | > 100 µM (inactive) | 60.5 µM (inactive) | 49.5 µM (inactive) | > 100 µM (inactive) | 37.2 µM (inactive) | 51.5 µM (inactive) | 52.8 µM | > 100 µM (inactive) | 52.1 µM (inactive) | 65.6 µM (inactive) | 36.3 µM (inactive) | > 100 µM (inactive) | > 100 µM (inactive) | 46 µM (inactive) | 63.4 µM (inactive)
CC1=C2C(=O)O[C@@H](c3ccoc3)[C@]2(C)CCC1 [FRAXINELLONE] | > 100 µM (inactive) | > 100 µM (inactive) | > 100 µM (inactive) | > 100 µM (inactive) | > 100 µM (inactive) | > 100 µM (inactive) | > 100 µM (inactive) | > 100 µM (inactive) | 23.1 µM (inactive) | > 100 µM | > 100 µM (inactive) | > 100 µM (inactive) | – | > 100 µM (inactive) | > 100 µM (inactive) | > 100 µM (inactive) | > 100 µM (inactive) | > 100 µM (inactive)
CC(C)(O)[C@@H]1CC[C@@]2(C)CCC[C@H](O)[C@H]2C1 | > 100 µM (inactive) | > 100 µM (inactive) | > 100 µM (inactive) | – | > 100 µM (inactive) | > 100 µM (inactive) | > 100 µM (inactive) | > 100 µM (inactive) | > 100 µM (inactive) | > 100 µM | > 100 µM (inactive) | > 100 µM (inactive) | > 100 µM (inactive) | > 100 µM (inactive) | > 100 µM (inactive) | > 100 µM (inactive) | > 100 µM (inactive) | > 100 µM (inactive)
CC12c3ccccc3C(OC=O)(c3ccccc31)C1(C)c3ccccc3C2(OC=O)c2ccccc21 | > 100 µM (inactive) | 25.2 µM (inactive) | > 100 µM (inactive) | > 100 µM (inactive) | > 100 µM (inactive) | 36.6 µM (inactive) | > 100 µM (inactive) | > 100 µM (inactive) | > 100 µM (inactive) | > 100 µM | > 100 µM (inactive) | > 100 µM (inactive) | > 100 µM (inactive) | > 100 µM (inactive) | > 100 µM (inactive) | > 100 µM (inactive) | > 100 µM (inactive) | > 100 µM (inactive)
CC1CN(c2ccc(Cl)cc2)CC(C)(C)OC(=O)O1 (stereo not drawn) | > 100 µM (inactive) | – | > 100 µM (inactive) | > 100 µM (inactive) | > 100 µM (inactive) | > 100 µM (inactive) | > 100 µM (inactive) | > 100 µM (inactive) | > 100 µM (inactive) | > 100 µM | > 100 µM (inactive) | > 100 µM (inactive) | > 100 µM (inactive) | > 100 µM (inactive) | > 100 µM (inactive) | > 100 µM (inactive) | > 100 µM (inactive) | > 100 µM (inactive)
CCOC(=O)C(Cc1ccc([N+](=O)[O-])cc1)NC(=O)CC1c2ccccc2-c2ccccc21 (stereo not drawn) | > 100 µM (inactive) | > 100 µM (inactive) | 90.8 µM (inactive) | > 100 µM (inactive) | > 100 µM (inactive) | > 100 µM (inactive) | 78.7 µM (inactive) | > 100 µM (inactive) | 23.7 µM (inactive) | > 100 µM | 45.1 µM (inactive) | > 100 µM (inactive) | 67.8 µM (inactive) | > 100 µM (inactive) | > 100 µM (inactive) | 51.5 µM (inactive) | > 100 µM (inactive) | 63.8 µM (inactive)
CCOC(=O)CCC1(C(=O)OC)CCCC1=O (stereo not drawn) | > 100 µM (inactive) | > 100 µM (inactive) | > 100 µM (inactive) | > 100 µM (inactive) | > 100 µM (inactive) | > 10 µM (inactive) | > 100 µM (inactive) | > 100 µM (inactive) | > 100 µM (inactive) | – | > 100 µM (inactive) | > 100 µM (inactive) | – | > 100 µM (inactive) | > 100 µM (inactive) | > 100 µM (inactive) | > 100 µM (inactive) | > 100 µM (inactive)
CCOC(=O)C1N(S(=O)(=O)c2ccc(C)cc2)CCC12C(c1ccc(OC)cc1)NC1CCCCC12 (stereo not drawn) | > 100 µM (inactive) | – | > 100 µM (inactive) | > 100 µM (inactive) | > 100 µM (inactive) | > 100 µM (inactive) | > 100 µM (inactive) | > 100 µM (inactive) | 22.9 µM (inactive) | > 100 µM | – | > 100 µM (inactive) | > 100 µM (inactive) | > 100 µM (inactive) | > 100 µM (inactive) | 77.6 µM (inactive) | > 100 µM (inactive) | > 100 µM (inactive)
c1ccc(C2Nc3ccccc3C3OCCCC23)cc1 (stereo not drawn) | 35.4 µM (inactive) | 24.9 µM (inactive) | – | 20.9 µM (inactive) | 18.4 µM (inactive) | 20.2 µM (inactive) | – | > 10 µM (inactive) | 26.4 µM (inactive) | 27 µM | 30.7 µM (inactive) | 32.8 µM (inactive) | 38.5 µM (inactive) | – | 25.1 µM (inactive) | 16.6 µM (inactive) | 11.8 µM (inactive) | 17.5 µM (inactive)
CCC(C)NC1=C(NC(C)=O)C(=O)c2ccccc2C1=O (stereo not drawn) | > 75 µM (inactive) | 74 µM (inactive) | > 75 µM (inactive) | > 75 µM (inactive) | > 75 µM (inactive) | 21.8 µM (inactive) | > 75 µM (inactive) | 54.1 µM (inactive) | > 75 µM (inactive) | 46.1 µM | > 75 µM (inactive) | > 75 µM (inactive) | > 75 µM (inactive) | – | > 75 µM (inactive) | > 75 µM (inactive) | > 75 µM (inactive) | > 75 µM (inactive)
Cc1cc(C)cc(NC(N)=S)c1 | 26.7 µM (inactive) | > 100 µM (inactive) | > 100 µM (inactive) | > 100 µM (inactive) | > 100 µM (inactive) | 19.1 µM (inactive) | – | 40.9 µM (inactive) | > 100 µM (inactive) | 17.9 µM | > 100 µM (inactive) | > 100 µM (inactive) | > 100 µM (inactive) | > 100 µM (inactive) | > 100 µM (inactive) | > 100 µM (inactive) | > 100 µM (inactive) | > 100 µM (inactive)
Cc1c2c(c(C)c3c1[nH]c1ccccc13)CN(C)CC2 | 15 µM (inactive) | 28.7 µM (inactive) | 19.2 µM (inactive) | – | 18.8 µM (inactive) | 49.4 µM (inactive) | 25.5 µM (inactive) | 16.7 µM (inactive) | 16.6 µM (inactive) | 15.3 µM | 17.3 µM (inactive) | 15.4 µM (inactive) | 20.6 µM (inactive) | 17 µM (inactive) | 16.6 µM (inactive) | 17.1 µM (inactive) | 26.8 µM (inactive) | 16.4 µM (inactive)
